Test: Solubility test of ginsenoside compound K depending on type of solvent
Type: physicochemical
Details: 95% of solvent and 5% of ginsenoside compound K
Method: The solubility of ginsenoside compound K was tested to be checked for representative polar and nonpolar solvents mainly used in cosmetics.

CC(C)=CCC[C@](C)(O[C@@H]1O[C@H](CO)[C@@H](O)[C@H](O)[C@H]1O)[C@H]1CC[C@]2(C)[C@@H]1[C@H](O)C[C@@H]1[C@@]3(C)CC[C@H](O)C(C)(C)[C@@H]3CC[C@]12C [ginsenoside compound K, 20-O-β-D-glucopyranosyl-20(S)-protopanaxadiol]
Solubility (60° C.) (solvent Ethanol): Soluble
Solubility (room temperature) (solvent Ethanol): Soluble
Solubility (60° C.) (solvent Glycerin): Insoluble
Solubility (room temperature) (solvent Glycerin): Insoluble
Solubility (60° C.) (solvent Mineral Oil): Insoluble
Solubility (room temperature) (solvent Mineral Oil): Insoluble
Solubility (60° C.) (solvent Non-Polar Ester Oil): Insoluble
Solubility (room temperature) (solvent Non-Polar Ester Oil): Insoluble
Solubility (60° C.) (solvent Polar Ester Oil): Insoluble
Solubility (room temperature) (solvent Polar Ester Oil): Insoluble
Solubility (60° C.) (solvent Silicone): Insoluble
Solubility (room temperature) (solvent Silicone): Insoluble
Solubility (60° C.) (solvent Surfactant): Insoluble
Solubility (room temperature) (solvent Surfactant): Insoluble
Solubility (60° C.) (solvent Vegetable Oil): Insoluble
Solubility (room temperature) (solvent Vegetable Oil): Insoluble
Solubility (60° C.) (solvent Water): Insoluble
Solubility (room temperature) (solvent Water): Insoluble
